# Data taken from patent US9006250B2, “4-amino-6-(heterocyclic)picolinates and 6-amino-2-(heterocyclic)pyrimidine-4-carboxylates and their use as herbicides” (Dow AgroSciences, LLC, priority 2013, dated 2015).
# What was measured:
# Test in all cases: Post-Emergent Test II herbicidal activity
# Type in all cases: in vivo
# [1] = tested on: ABUTH: velvetleaf (Abutilon theophrasti); settings: post-emergence, 336 h, 14 days, read-out: Visual Growth Reduction (%) 14 Days After Application ABUTH; for pest or weed control at 35 g/ha: 35 g ai/ha; for pest or weed control at 70 g/ha: 70 g ai/ha; for pest or weed control at 140 g/ha: 140 g ai/ha
# Procedure: (§1) Post-Emergent Test II: Seeds or nutlets of the desired test plant species were planted in Sun Gro Metro-Mix® 360 planting mixture, which typically has a pH of 6.0 to 6.8 and an organic matter content of about 30 percent, in plastic pots with a surface area of 64 square centimeters. When required to ensure good germination and healthy plants, a fungicide treatment and/or other chemical or physical treatment was applied. The plants were grown for 7-21 d in a greenhouse with an approximate 15 h photoperiod which was maintained at about 23-29° C. during the day and 22-28° C. during the night. Nutrients and water were added on a regular basis and supplemental lighting was provided with overhead metal halide 1000-Watt lamps as necessary. The plants were employed for testing when they reached the first or second true leaf stage.
# (§2) A weighed amount, determined by the highest rate to be tested, of each test compound was placed in a 25 mL glass vial and was dissolved in 4 mL of a 97:3 v/v mixture of acetone and DMSO to obtain concentrated stock solutions. […] The concentrated stock solutions obtained were diluted with 20 mL of an aqueous mixture containing acetone, water, isopropyl alcohol, DMSO, Atplus 411F crop oil concentrate, and Triton® X-155 surfactant in a 48.5:39:10:1.5:1.0:0.02 v/v ratio to obtain spray solutions containing the highest application rates. Additional application rates were obtained by serial dilution of 12 mL of the high rate solution into a solution containing 2 mL of 97:3 v/v mixture of acetone and DMSO and 10 mL of an aqueous mixture containing acetone, water, isopropyl alcohol, DMSO, Atplus 411F crop oil concentrate, and Triton X®-155 surfactant in a 48.5:39:10:1.5:1.0:0.02 v/v ratio to obtain ½×, ¼×, ⅛× and 1/16× rates of the high rate. Compound requirements are based upon a 12 mL application volume at a rate of 187 liters per hectare (L/ha). Formulated compounds were applied to the plant material with an overhead Mandel track sprayer equipped with 8002E nozzles calibrated to deliver 187 L/ha over an application area of 0.503 square meters at a spray height of 18 inches […] above the average plant canopy height. Control plants were sprayed in the same manner with the solvent blank.
# (§3) The treated plants and control plants were placed in a greenhouse as described above and watered by subirrigation to prevent wash-off of the test compounds. After 14 d, the condition of the test plants as compared with that of the untreated plants was determined visually and scored on a scale of 0 to 100 percent where 0 corresponds to no injury and 100 corresponds to complete kill.
# [2] = tested on: AMARE: redroot pigweed (Amaranthus retroflexus); settings: post-emergence, 336 h, 14 days, read-out: Visual Growth Reduction (%) 14 Days After Application AMARE; for pest or weed control at 35 g/ha: 35 g ai/ha; for pest or weed control at 70 g/ha: 70 g ai/ha; for pest or weed control at 140 g/ha: 140 g ai/ha
# Procedure: as §1, §2, §3
# [3] = tested on: BRSNN: oilseed rape, canola (Brassica napus); settings: post-emergence, 336 h, 14 days, read-out: Visual Growth Reduction (%) 14 Days After Application BRSNN; for pest or weed control at 35 g/ha: 35 g ai/ha; for pest or weed control at 70 g/ha: 70 g ai/ha; for pest or weed control at 140 g/ha: 140 g ai/ha
# Procedure: as §1, §2, §3
# [4] = tested on: CHEAL: lambsquarters (Chenopodium album); settings: post-emergence, 336 h, 14 days, read-out: Visual Growth Reduction (%) 14 Days After Application CHEAL; for pest or weed control at 35 g/ha: 35 g ai/ha; for pest or weed control at 70 g/ha: 70 g ai/ha; for pest or weed control at 140 g/ha: 140 g ai/ha
# Procedure: as §1, §2, §3
# [5] = tested on: CYPES: yellow nutsedge (Cyperus esculentus); settings: post-emergence, 336 h, 14 days, read-out: Visual Growth Reduction (%) 14 Days After Application CYPES; for pest or weed control at 35 g/ha: 35 g ai/ha; for pest or weed control at 70 g/ha: 70 g ai/ha; for pest or weed control at 140 g/ha: 140 g ai/ha
# Procedure: as §1, §2, §3
# [6] = tested on: ECHCG: barnyardgrass (Echinochloa crus-galli); settings: post-emergence, 336 h, 14 days, read-out: Visual Growth Reduction (%) 14 Days After Application ECHCG; for pest or weed control at 35 g/ha: 35 g ai/ha; for pest or weed control at 70 g/ha: 70 g ai/ha; for pest or weed control at 140 g/ha: 140 g ai/ha
# Procedure: as §1, §2, §3
# [7] = tested on: EPHHL: wild poinsettia (Euphorbia heterophylla); settings: post-emergence, 336 h, 14 days, read-out: Visual Growth Reduction (%) 14 Days After Application EPHHL; for pest or weed control at 35 g/ha: 35 g ai/ha; for pest or weed control at 70 g/ha: 70 g ai/ha; for pest or weed control at 140 g/ha: 140 g ai/ha
# Procedure: as §1, §2, §3
# [8] = tested on: HELAN: sunflower (Helianthus annuus); settings: post-emergence, 336 h, 14 days, read-out: Visual Growth Reduction (%) 14 Days After Application HELAN; for pest or weed control at 35 g/ha: 35 g ai/ha; for pest or weed control at 70 g/ha: 70 g ai/ha; for pest or weed control at 140 g/ha: 140 g ai/ha
# Procedure: as §1, §2, §3
# [9] = tested on: ORYSA: rice (Oryza sativa); settings: post-emergence, 336 h, 14 days, read-out: Visual Growth Reduction (%) 14 Days After Application ORYSA; for pest or weed control at 35 g/ha: 35 g ai/ha; for pest or weed control at 70 g/ha: 70 g ai/ha; for pest or weed control at 140 g/ha: 140 g ai/ha
# Procedure: as §1, §2, §3
# [10] = tested on: SETFA: giant foxtail (Setaria faberi); settings: post-emergence, 336 h, 14 days, read-out: Visual Growth Reduction (%) 14 Days After Application SETFA; for pest or weed control at 35 g/ha: 35 g ai/ha; for pest or weed control at 70 g/ha: 70 g ai/ha; for pest or weed control at 140 g/ha: 140 g ai/ha
# Procedure: as §1, §2, §3
# [11] = tested on: TRZAS: wheat, spring (Triticum aestivum); settings: post-emergence, 336 h, 14 days, read-out: Visual Growth Reduction (%) 14 Days After Application TRZAS; for pest or weed control at 35 g/ha: 35 g ai/ha; for pest or weed control at 70 g/ha: 70 g ai/ha; for pest or weed control at 140 g/ha: 140 g ai/ha
# Procedure: as §1, §2, §3
# [12] = tested on: ZEAMX: maize, corn (Zea mays); settings: post-emergence, 336 h, 14 days, read-out: Visual Growth Reduction (%) 14 Days After Application ZEAMX; for pest or weed control at 35 g/ha: 35 g ai/ha; for pest or weed control at 70 g/ha: 70 g ai/ha; for pest or weed control at 140 g/ha: 140 g ai/ha
# Procedure: as §1, §2, §3
Structure (SMILES),pest or weed control at 35 g/ha [1] [%],pest or weed control at 70 g/ha [1] [%],pest or weed control at 140 g/ha [1] [%],pest or weed control at 35 g/ha [2] [%],pest or weed control at 70 g/ha [2] [%],pest or weed control at 140 g/ha [2] [%],pest or weed control at 35 g/ha [3] [%],pest or weed control at 70 g/ha [3] [%],pest or weed control at 140 g/ha [3] [%],pest or weed control at 35 g/ha [4] [%],pest or weed control at 70 g/ha [4] [%],pest or weed control at 140 g/ha [4] [%],pest or weed control at 35 g/ha [5] [%],pest or weed control at 70 g/ha [5] [%],pest or weed control at 140 g/ha [5] [%],pest or weed control at 35 g/ha [6] [%],pest or weed control at 70 g/ha [6] [%],pest or weed control at 140 g/ha [6] [%],pest or weed control at 35 g/ha [7] [%],pest or weed control at 70 g/ha [7] [%],other results
COC(=O)c1nc(-c2ccc3nsnc3c2F)cc(N)c1Cl [Compound 14],0 to 29,0 to 29,0 to 29,30 to 44,30 to 44,45 to 59,0 to 29,0 to 29,0 to 29,45 to 59,60 to 74,75 to 84,0 to 29,0 to 29,0 to 29,0 to 29,0 to 29,0 to 29,60 to 74,85 to 94,pest or weed control at 140 g/ha [7]: 95 to 100%; pest or weed control at 35 g/ha [8]: 0 to 29%; pest or weed control at 70 g/ha [8]: 0 to 29%; pest or weed control at 140 g/ha [8]: 30 to 44%; pest or weed control at 35 g/ha [9]: 0 to 29%; pest or weed control at 70 g/ha [9]: 0 to 29%; pest or weed control at 140 g/ha [9]: 0 to 29%; pest or weed control at 35 g/ha [10]: 0 to 29%; pest or weed control at 70 g/ha [10]: 0 to 29%; pest or weed control at 140 g/ha [10]: 0 to 29%; pest or weed control at 35 g/ha [11]: 0 to 29%; pest or weed control at 70 g/ha [11]: 0 to 29%; pest or weed control at 140 g/ha [11]: 0 to 29%; pest or weed control at 35 g/ha [12]: 0 to 29%; pest or weed control at 70 g/ha [12]: 0 to 29%; pest or weed control at 140 g/ha [12]: 0 to 29%
Nc1c(F)c(-c2ccc3nsnc3c2)nc(C(=O)O)c1Cl [Compound 12],85 to 94,85 to 94,85 to 94,95 to 100,95 to 100,95 to 100,75 to 84,75 to 84,75 to 84,85 to 94,95 to 100,95 to 100,0 to 29,0 to 29,0 to 29,75 to 84,75 to 84,85 to 94,95 to 100,95 to 100,pest or weed control at 140 g/ha [7]: 95 to 100%; pest or weed control at 35 g/ha [8]: 95 to 100%; pest or weed control at 70 g/ha [8]: 95 to 100%; pest or weed control at 140 g/ha [8]: 95 to 100%; pest or weed control at 35 g/ha [9]: 0 to 29%; pest or weed control at 70 g/ha [9]: 0 to 29%; pest or weed control at 140 g/ha [9]: 0 to 29%; pest or weed control at 35 g/ha [10]: 0 to 29%; pest or weed control at 70 g/ha [10]: 0 to 29%; pest or weed control at 140 g/ha [10]: 75 to 84%; pest or weed control at 35 g/ha [11]: 0 to 29%; pest or weed control at 70 g/ha [11]: 0 to 29%; pest or weed control at 140 g/ha [11]: 0 to 29%; pest or weed control at 35 g/ha [12]: 60 to 74%; pest or weed control at 70 g/ha [12]: 60 to 74%; pest or weed control at 140 g/ha [12]: 75 to 84%
COC(=O)c1nc(-c2ccc3nonc3c2Cl)cc(N)c1Cl [Compound 18],0 to 29,0 to 29,0 to 29,95 to 100,95 to 100,95 to 100,60 to 74,75 to 84,75 to 84,75 to 84,85 to 94,95 to 100,0 to 29,0 to 29,30 to 44,0 to 29,0 to 29,30 to 44,0 to 29,0 to 29,pest or weed control at 140 g/ha [7]: 30 to 44%; pest or weed control at 35 g/ha [8]: 0 to 29%; pest or weed control at 70 g/ha [8]: 30 to 44%; pest or weed control at 140 g/ha [8]: 60 to 74%; pest or weed control at 35 g/ha [9]: 0 to 29%; pest or weed control at 70 g/ha [9]: 0 to 29%; pest or weed control at 140 g/ha [9]: 0 to 29%; pest or weed control at 35 g/ha [10]: 0 to 29%; pest or weed control at 70 g/ha [10]: 0 to 29%; pest or weed control at 140 g/ha [10]: 0 to 29%; pest or weed control at 35 g/ha [11]: 0 to 29%; pest or weed control at 70 g/ha [11]: 0 to 29%; pest or weed control at 140 g/ha [11]: 0 to 29%; pest or weed control at 35 g/ha [12]: 0 to 29%; pest or weed control at 70 g/ha [12]: 0 to 29%; pest or weed control at 140 g/ha [12]: 0 to 29%
